Numbered stars: 1 amine (or outer) side, 2 acyl side, 3 side chain; on linkers, the order of the positions; unused ones are H or OH. Square brackets hold non-standard residues; d marks the D form. Peptide text beside a SMILES is read from it. * marks the point of attachment. Propanoyl(3-indol-3-yl) = O=C(CCc1c[nH]c2ccccc12)*; Butyryl(4-indol-3-yl) = O=C(CCCc1c[nH]c2ccccc12)*; Propanoyl(3-(4-F-phenyl)) = O=C(CCc1ccc(F)cc1)*; Propanoyl(3-(4-MeO-Ph)) = COc1ccc(CCC(=O)*)cc1; Propanoyl(3-(4-Cl-Ph)) = O=C(CCc1ccc(Cl)cc1)*; X1 = O=C([C@H]1CC[C@@H](c2ccccc2)CC1)*; Desaminotyrosyl = O=C(CCc1ccc(O)cc1)*; Butanoyl(4-OPh) = O=C(CCCOc1ccccc1)*; Butanoyl(4-Ph) = O=C(CCCc1ccccc1)*; hArg = N=C(N)NCCCC[C@H](N)C(=O)O; X36 = CC(=O)c1ccc(OCCC(=O)*)cc1; X28 = COc1cc(OCCCC(=O)*)ccc1CO; Suc = O=C(CCC(=O)[*:2])[*:1]; X11 = O=C(CCCOc1ccc(Br)cc1)*; X18 = COc1ccc(OCCC(=O)*)cc1; X25 = COc1cc(CCC(=O)*)ccc1O; X31 = Cc1ccc(OCCCC(=O)*)cc1; X7 = CCc1ccc(OCCCC(=O)*)cc1; X12 = O=C(CCCc1ccc(F)cc1)*; X15 = COc1cccc(CCC(=O)*)c1; X10 = Nc1cccc(CCC(=O)*)c1; X4 = Cc1ccc(OCCC(=O)*)cc1; Morpholide = C1CN(*)CCO1
Key:
PCSK9 = PCSK9 (Homo sapiens, UniProt Q8NBP7); test: PCSK9/EGF(A) TR-FRET binding assay; settings: TR-FRET; Table 8E, additional compounds; read-out: PCSK9/EGF(A) IC50
PCSK9Δhelix = target: T1, PCSK9Δhelix (Homo sapiens, UniProt Q8NBP7); test: PCSK9Δhelix/Ab20 TR-FRET binding assay; settings: TR-FRET; Table 8E, additional compounds; read-out: PCSK9Δhelix/Ab20 IC50
T1 construct: Human PCSK9 construct M1-Q692 with an engineered TEV site (residue deletion Y166, R167); made in house; host or cells: CHO
T1 sequence (Q8NBP7 with tags, fused parts or gaps limits assumed): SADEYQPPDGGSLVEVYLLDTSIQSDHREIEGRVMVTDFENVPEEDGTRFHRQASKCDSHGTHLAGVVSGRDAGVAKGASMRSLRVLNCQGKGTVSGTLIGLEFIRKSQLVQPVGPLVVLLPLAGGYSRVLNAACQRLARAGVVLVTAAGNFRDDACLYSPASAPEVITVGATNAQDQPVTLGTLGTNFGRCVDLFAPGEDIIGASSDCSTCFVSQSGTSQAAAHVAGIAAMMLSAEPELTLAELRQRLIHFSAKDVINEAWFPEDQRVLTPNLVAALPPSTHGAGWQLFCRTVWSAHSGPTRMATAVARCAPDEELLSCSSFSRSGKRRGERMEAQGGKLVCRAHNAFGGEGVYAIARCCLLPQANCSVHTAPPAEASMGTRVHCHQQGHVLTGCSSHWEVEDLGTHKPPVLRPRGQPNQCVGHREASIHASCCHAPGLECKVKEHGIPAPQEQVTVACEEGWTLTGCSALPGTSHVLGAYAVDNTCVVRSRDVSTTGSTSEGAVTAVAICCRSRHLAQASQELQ
T1 sequence (Q8NBP7 31-152 partner limits assumed): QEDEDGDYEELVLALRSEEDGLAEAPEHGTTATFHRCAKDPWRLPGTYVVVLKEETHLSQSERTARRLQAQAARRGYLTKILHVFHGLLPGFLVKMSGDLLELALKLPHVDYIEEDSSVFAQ

Sequence of PCSK9 (Q8NBP7 153-692): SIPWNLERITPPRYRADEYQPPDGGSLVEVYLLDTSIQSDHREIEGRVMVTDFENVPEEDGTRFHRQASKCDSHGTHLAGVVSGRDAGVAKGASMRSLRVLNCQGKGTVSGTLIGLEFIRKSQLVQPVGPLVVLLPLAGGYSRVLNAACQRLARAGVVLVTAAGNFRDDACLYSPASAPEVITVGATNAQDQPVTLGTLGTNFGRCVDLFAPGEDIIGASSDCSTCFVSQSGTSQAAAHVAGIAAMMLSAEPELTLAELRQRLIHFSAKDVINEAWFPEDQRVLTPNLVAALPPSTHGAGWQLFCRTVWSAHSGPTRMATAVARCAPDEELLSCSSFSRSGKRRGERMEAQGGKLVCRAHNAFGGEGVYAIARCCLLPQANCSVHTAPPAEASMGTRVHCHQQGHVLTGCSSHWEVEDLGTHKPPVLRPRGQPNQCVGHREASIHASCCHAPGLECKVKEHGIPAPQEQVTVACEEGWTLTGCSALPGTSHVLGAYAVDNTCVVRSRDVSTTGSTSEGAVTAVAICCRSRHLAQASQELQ
Sequence of PCSK9 (Q8NBP7 31-152 partner limits assumed): as the sequence (Q8NBP7 31-152 partner limits assumed) above

SMILES	IC50 (PCSK9)	IC50 (PCSK9Δhelix)
CC[C@H](C)[C@H](NC(=O)[C@H](CCCCNC(=N)N)NC(=O)[C@@H](NC(=O)[C@H](CC(C)C)NC(=O)[C@H](CC(N)=O)NC(=O)[C@H](Cc1c[nH]c2ccccc12)NC(=O)CCC(=O)N1CCOCC1)C(C)C)C(=O)NCC(=O)N[C@@H](CC(C)C)C(=O)N[C@@H](CC(C)C)C(=O)N[C@@H](CCCNC(=N)N)C(N)=O [Compound 194] ({Morpholide-Suc}-WNLV[hArg]IGLLR-NH2)	≥ 50 µM	1.9 µM
CC[C@H](C)[C@H](NC(=O)[C@H](CCCCNC(=N)N)NC(=O)[C@@H](NC(=O)[C@H](CC(C)C)NC(=O)[C@H](CC(N)=O)NC(=O)[C@H](Cc1c[nH]c2ccccc12)NC(=O)CCCc1ccc(F)cc1)C(C)C)C(=O)NCC(=O)N[C@@H](CC(C)C)C(=O)N[C@@H](CC(C)C)C(=O)N[C@@H](CCCNC(=N)N)C(N)=O [Compound 196] (X12-WNLV[hArg]IGLLR-NH2)	7.3 µM	1.4 µM
CC[C@H](C)[C@H](NC(=O)[C@H](CCCCNC(=N)N)NC(=O)[C@@H](NC(=O)[C@H](CC(C)C)NC(=O)[C@H](CC(N)=O)NC(=O)[C@H](Cc1c[nH]c2ccccc12)NC(=O)CCc1ccc(OC)cc1)C(C)C)C(=O)NCC(=O)N[C@@H](CC(C)C)C(=O)N[C@@H](CC(C)C)C(=O)N[C@@H](CCCNC(=N)N)C(N)=O [Compound 197] ({Propanoyl(3-(4-MeO-Ph))}-WNLV[hArg]IGLLR-NH2)	0.97 µM	0.09 µM
CC[C@H](C)[C@H](NC(=O)[C@H](CCCCNC(=N)N)NC(=O)[C@@H](NC(=O)[C@H](CC(C)C)NC(=O)[C@H](CC(N)=O)NC(=O)[C@H](Cc1c[nH]c2ccccc12)NC(=O)CCc1ccc(F)cc1)C(C)C)C(=O)NCC(=O)N[C@@H](CC(C)C)C(=O)N[C@@H](CC(C)C)C(=O)N[C@@H](CCCNC(=N)N)C(N)=O [Compound 198] ({Propanoyl(3-(4-F-phenyl))}-WNLV[hArg]IGLLR-NH2)	1.7 µM	0.25 µM
CC[C@H](C)[C@H](NC(=O)[C@H](CCCCNC(=N)N)NC(=O)[C@@H](NC(=O)[C@H](CC(C)C)NC(=O)[C@H](CC(N)=O)NC(=O)[C@H](Cc1c[nH]c2ccccc12)NC(=O)CCc1ccc(Cl)cc1)C(C)C)C(=O)NCC(=O)N[C@@H](CC(C)C)C(=O)N[C@@H](CC(C)C)C(=O)N[C@@H](CCCNC(=N)N)C(N)=O [Compound 199] ({Propanoyl(3-(4-Cl-Ph))}-WNLV[hArg]IGLLR-NH2)	0.98 µM	0.2 µM
CC[C@H](C)[C@H](NC(=O)[C@H](CCCCNC(=N)N)NC(=O)[C@@H](NC(=O)[C@H](CC(C)C)NC(=O)[C@H](CC(N)=O)NC(=O)[C@H](Cc1c[nH]c2ccccc12)NC(=O)CCCc1c[nH]c2ccccc12)C(C)C)C(=O)NCC(=O)N[C@@H](CC(C)C)C(=O)N[C@@H](CC(C)C)C(=O)N[C@@H](CCCNC(=N)N)C(N)=O [Compound 200] ({Butyryl(4-indol-3-yl)}-WNLV[hArg]IGLLR-NH2)	3.2 µM	0.67 µM
CC[C@H](C)[C@H](NC(=O)[C@H](CCCCNC(=N)N)NC(=O)[C@@H](NC(=O)[C@H](CC(C)C)NC(=O)[C@H](CC(N)=O)NC(=O)[C@H](Cc1c[nH]c2ccccc12)NC(=O)CCc1c[nH]c2ccccc12)C(C)C)C(=O)NCC(=O)N[C@@H](CC(C)C)C(=O)N[C@@H](CC(C)C)C(=O)N[C@@H](CCCNC(=N)N)C(N)=O [Compound 201] ({Propanoyl(3-indol-3-yl)}-WNLV[hArg]IGLLR-NH2)	3.9 µM	1 µM
CC[C@H](C)[C@H](NC(=O)[C@H](CCCCNC(=N)N)NC(=O)[C@@H](NC(=O)[C@H](CC(C)C)NC(=O)[C@H](CC(N)=O)NC(=O)[C@H](Cc1c[nH]c2ccccc12)NC(=O)CCc1cccc(OC)c1)C(C)C)C(=O)NCC(=O)N[C@@H](CC(C)C)C(=O)N[C@@H](CC(C)C)C(=O)N[C@@H](CCCNC(=N)N)C(N)=O [Compound 202] (X15-WNLV[hArg]IGLLR-NH2)	2.6 µM	0.34 µM
CC[C@H](C)[C@H](NC(=O)[C@H](CCCCNC(=N)N)NC(=O)[C@@H](NC(=O)[C@H](CC(C)C)NC(=O)[C@H](CC(N)=O)NC(=O)[C@H](Cc1c[nH]c2ccccc12)NC(=O)CCOc1ccc(OC)cc1)C(C)C)C(=O)NCC(=O)N[C@@H](CC(C)C)C(=O)N[C@@H](CC(C)C)C(=O)N[C@@H](CCCNC(=N)N)C(N)=O [Compound 203] (X18-WNLV[hArg]IGLLR-NH2)	21 µM	1.6 µM
CC[C@H](C)[C@H](NC(=O)[C@H](CCCCNC(=N)N)NC(=O)[C@@H](NC(=O)[C@H](CC(C)C)NC(=O)[C@H](CC(N)=O)NC(=O)[C@H](Cc1c[nH]c2ccccc12)NC(=O)CCCOc1ccc(CO)c(OC)c1)C(C)C)C(=O)NCC(=O)N[C@@H](CC(C)C)C(=O)N[C@@H](CC(C)C)C(=O)N[C@@H](CCCNC(=N)N)C(N)=O [Compound 204] (X28-WNLV[hArg]IGLLR-NH2)	3.6 µM	0.87 µM
CC[C@H](C)[C@H](NC(=O)[C@H](CCCCNC(=N)N)NC(=O)[C@@H](NC(=O)[C@H](CC(C)C)NC(=O)[C@H](CC(N)=O)NC(=O)[C@H](Cc1c[nH]c2ccccc12)NC(=O)CCOc1ccc(C(C)=O)cc1)C(C)C)C(=O)NCC(=O)N[C@@H](CC(C)C)C(=O)N[C@@H](CC(C)C)C(=O)N[C@@H](CCCNC(=N)N)C(N)=O [Compound 205] (X36-WNLV[hArg]IGLLR-NH2)	2.8 µM	0.64 µM
CC[C@H](C)[C@H](NC(=O)[C@H](CCCCNC(=N)N)NC(=O)[C@@H](NC(=O)[C@H](CC(C)C)NC(=O)[C@H](CC(N)=O)NC(=O)[C@H](Cc1c[nH]c2ccccc12)NC(=O)CCCOc1ccc(Br)cc1)C(C)C)C(=O)NCC(=O)N[C@@H](CC(C)C)C(=O)N[C@@H](CC(C)C)C(=O)N[C@@H](CCCNC(=N)N)C(N)=O [Compound 206] (X11-WNLV[hArg]IGLLR-NH2)	1.8 µM	0.87 µM
CC[C@H](C)[C@H](NC(=O)[C@H](CCCCNC(=N)N)NC(=O)[C@@H](NC(=O)[C@H](CC(C)C)NC(=O)[C@H](CC(N)=O)NC(=O)[C@H](Cc1c[nH]c2ccccc12)NC(=O)CCCOc1ccc(C)cc1)C(C)C)C(=O)NCC(=O)N[C@@H](CC(C)C)C(=O)N[C@@H](CC(C)C)C(=O)N[C@@H](CCCNC(=N)N)C(N)=O [Compound 207] (X31-WNLV[hArg]IGLLR-NH2)	1.3 µM	0.32 µM
CC[C@H](C)[C@H](NC(=O)[C@H](CCCCNC(=N)N)NC(=O)[C@@H](NC(=O)[C@H](CC(C)C)NC(=O)[C@H](CC(N)=O)NC(=O)[C@H](Cc1c[nH]c2ccccc12)NC(=O)[C@H]1CC[C@@H](c2ccccc2)CC1)C(C)C)C(=O)NCC(=O)N[C@@H](CC(C)C)C(=O)N[C@@H](CC(C)C)C(=O)N[C@@H](CCCNC(=N)N)C(N)=O [Compound 208] (X1-WNLV[hArg]IGLLR-NH2)	0.45 µM	0.1 µM
CC[C@H](C)[C@H](NC(=O)[C@H](CCCCNC(=N)N)NC(=O)[C@@H](NC(=O)[C@H](CC(C)C)NC(=O)[C@H](CC(N)=O)NC(=O)[C@H](Cc1c[nH]c2ccccc12)NC(=O)CCCOc1ccccc1)C(C)C)C(=O)NCC(=O)N[C@@H](CC(C)C)C(=O)N[C@@H](CC(C)C)C(=O)N[C@@H](CCCNC(=N)N)C(N)=O [Compound 209] ({Butanoyl(4-OPh)}-WNLV[hArg]IGLLR-NH2)	2.9 µM	0.45 µM
CCc1ccc(OCCCC(=O)N[C@@H](Cc2c[nH]c3ccccc23)C(=O)N[C@@H](CC(N)=O)C(=O)N[C@@H](CC(C)C)C(=O)N[C@H](C(=O)N[C@@H](CCCCNC(=N)N)C(=O)N[C@H](C(=O)NCC(=O)N[C@@H](CC(C)C)C(=O)N[C@@H](CC(C)C)C(=O)N[C@@H](CCCNC(=N)N)C(N)=O)[C@@H](C)CC)C(C)C)cc1 [Compound 210] (X7-WNLV[hArg]IGLLR-NH2)	3 µM	0.84 µM
CC[C@H](C)[C@H](NC(=O)[C@H](CCCCNC(=N)N)NC(=O)[C@@H](NC(=O)[C@H](CC(C)C)NC(=O)[C@H](CC(N)=O)NC(=O)[C@H](Cc1c[nH]c2ccccc12)NC(=O)CCOc1ccc(C)cc1)C(C)C)C(=O)NCC(=O)N[C@@H](CC(C)C)C(=O)N[C@@H](CC(C)C)C(=O)N[C@@H](CCCNC(=N)N)C(N)=O [Compound 211] (X4-WNLV[hArg]IGLLR-NH2)	14 µM	3.8 µM
CC[C@H](C)[C@H](NC(=O)[C@H](CCCCNC(=N)N)NC(=O)[C@@H](NC(=O)[C@H](CC(C)C)NC(=O)[C@H](CC(N)=O)NC(=O)[C@H](Cc1c[nH]c2ccccc12)NC(=O)CCCc1ccccc1)C(C)C)C(=O)NCC(=O)N[C@@H](CC(C)C)C(=O)N[C@@H](CC(C)C)C(=O)N[C@@H](CCCNC(=N)N)C(N)=O [Compound 212] ({Butanoyl(4-Ph)}-WNLV[hArg]IGLLR-NH2)	15 µM	1.6 µM
CC[C@H](C)[C@H](NC(=O)[C@H](CCCCNC(=N)N)NC(=O)[C@@H](NC(=O)[C@H](CC(C)C)NC(=O)[C@H](CC(N)=O)NC(=O)[C@H](Cc1c[nH]c2ccccc12)NC(=O)CCc1ccc(O)c(OC)c1)C(C)C)C(=O)NCC(=O)N[C@@H](CC(C)C)C(=O)N[C@@H](CC(C)C)C(=O)N[C@@H](CCCNC(=N)N)C(N)=O [Compound 213] (X25-WNLV[hArg]IGLLR-NH2)	3.8 µM	0.2 µM
CC[C@H](C)[C@H](NC(=O)[C@H](CCCCNC(=N)N)NC(=O)[C@@H](NC(=O)[C@H](CC(C)C)NC(=O)[C@H](CC(N)=O)NC(=O)[C@H](Cc1c[nH]c2ccccc12)NC(=O)CCc1ccc(O)cc1)C(C)C)C(=O)NCC(=O)N[C@@H](CC(C)C)C(=O)N[C@@H](CC(C)C)C(=O)N[C@@H](CCCNC(=N)N)C(N)=O [Compound 214] (Desaminotyrosyl-WNLV[hArg]IGLLR-NH2)	3 µM	0.21 µM
CC[C@H](C)[C@H](NC(=O)[C@H](CCCCNC(=N)N)NC(=O)[C@@H](NC(=O)[C@H](CC(C)C)NC(=O)[C@H](CC(N)=O)NC(=O)[C@H](Cc1c[nH]c2ccccc12)NC(=O)CCc1cccc(N)c1)C(C)C)C(=O)NCC(=O)N[C@@H](CC(C)C)C(=O)N[C@@H](CC(C)C)C(=O)N[C@@H](CCCNC(=N)N)C(N)=O [Compound 215] (X10-WNLV[hArg]IGLLR-NH2)	7 µM	0.48 µM

Reference: patent US11034725B2, “Compositions and methods for treating cardiovascular disease” (Genentech, Inc., priority 2016, dated 2021)
